According to ChEMBL document CHEMBL1151440, “Safety and pharmacokinetics of GSK364735, a human immunodeficiency virus type 1 integrase inhibitor, following single and repeated administration in healthy adult subjects” (Antimicrob Agents Chemother, 2007):

Experiments:
Homo sapiens [1] = species on record: Homo sapiens; assay: Toxicity in human assessed as adverse effect at 400 mg daily for 8 days; type: organism-based; details: in vivo, 192 h
[2] = Terminal elimination half life in human at 400 mg administered with fat meal daily for 8 days measured on day 1; type: ADME, organism-based; details: in vivo, read-out: beta t1/2 (converted)
[3] = Cmax in human at 50 mg administered with fat meal every 12 hrs for 8 days measured on day 8; type: ADME, organism-based; parameters: dose 50 mg; details: in vivo
Homo sapiens [4] = assay: Toxicity in human assessed as dizziness at 100 mg administered every 12 hrs for 8 days; type: organism-based; details: in vivo
[5] = Plasma concentration in human at 200 mg administered with fat meal every 12 hrs for 8 days measured on day 1 after 12 hrs of first dose; type: ADME, organism-based
[6] = Tmax in human at 100 mg administered with fat meal every 12 hrs for 8 days measured on day 1; type: ADME, organism-based; details: in vivo
[7] = Cmax in human at 200 mg administered with fat meal every 12 hrs for 8 days measured on day 8; type: ADME, organism-based; parameters: dose 200 mg; details: in vivo
[8] = Terminal elimination half life in iv dosed rat; type: ADME, organism-based; details: in vivo, read-out: beta t1/2 (converted)
Rhesus monkey = assay: Clearance in iv dosed monkey assessed as liver blood flow; type: ADME, organism-based, Macaca mulatta; details: in vivo

- half-life [2]: 4.1 h
- Cmax [3]: 1400 ng/mL
- concentration at 12 h [5]: 230 ng/mL
- Tmax [6]: 3.25 h
- Cmax [7]: 1600 ng/mL
- half-life [8]: 1.5 h
- QH (Rhesus monkey): 4.6%
Structure (SMILES): Cn1c(=O)c(C(=O)NCCO)c(O)c2ncc(Cc3ccc(F)cc3)cc21 [GSK-364735]
- Activity (Homo sapiens [1]): Non-toxic
- Activity (Homo sapiens [4]): 13%
